Values joined by “and” are separate entries in the source; they are usually repeats but may differ in a detail not shown here. Equal values may be shown once.
Experiments:
[1] = xn = mol fraction of the nth substance listed; settings: 101 kPa, Liquid; for viscosity: Capillary tube (Ostwald / Ubbelohde) method; for mass density: Vibrating tube method
[2] = 101.33 kPa, Liquid, Capillary tube (Ostwald / Ubbelohde) method

CCCCCC [hexane] + FC(F)(F)C(F)(F)C(F)(F)C(F)(F)C(F)(F)C(F)(F)F
[1], x2 = 0
Settings | mass density [kg/m3] | viscosity [mPa·s]
298 K | 655 | 0.294
303 K | – | 0.28
308 K | – | 0.267

FC(F)(F)C(F)(F)C(F)(F)C(F)(F)C(F)(F)C(F)(F)F [perfluorohexane] + CCCCCC
[1]
Settings | mass density, x1 = 0.25 [kg/m3] | mass density, x1 = 0.5 [kg/m3] | mass density, x1 = 0.75 [kg/m3] | mass density, x1 = 1 [kg/m3] | viscosity, x1 = 0.243 [mPa·s] | viscosity, x1 = 0.5 | viscosity, x1 = 0.705 [mPa·s] | viscosity, x1 = 0.727 [mPa·s] | viscosity, x1 = 0.902 [mPa·s] | viscosity, x1 = 1 [mPa·s]
298 K | 956 | 1207 | 1457 | 1672 | 0.341 | 0.408 mPa·s and 0.407 mPa·s | 0.458 | 0.468 | 0.556 | 0.635
303 K | – | – | – | – | 0.319 | 0.375 mPa·s | 0.428 | 0.438 | 0.52 | 0.589
308 K | – | – | – | – | 0.299 | 0.35 mPa·s and 0.352 mPa·s | 0.401 | 0.41 | 0.483 | 0.548

CCCCCC [hexane]
[2]
Settings | viscosity [mPa·s]
298.2 K | 0.2937
303.16 K | 0.2798
308.13 K | 0.2669

Reference: the NIST ThermoML archive (doi:10.1016/j.fluid.2013.07.060)
